Consider two molecules from patent US20080014192A1, “Methods For The Diagnosis And Treatment of Fungal Infections Caused By Microorganisms Producing Glucosylceramide” (priority 2006, published 2008).

In experiment [1] the test system is fungal cells. As to conditions: Ma et al., 2006 and Alvarez et al.; cited from earlier work.
The test system of experiment [2] is Cn Δgcs1 mutant. In words: Lung histopathology of Tgε26 mice infected with Cn Δgcs1. Format: in vivo, Cryptococcus neoformans. The settings on record: day 16 and day 36 of infection; vs empty liposome.
Protocol: Histological analyses. Organs were harvested and fixed for 48 hours in 37% formaldehyde, paraffin-embedded, sectioned and stained with movat, mucicarmine, or hematoxylin and eosin.
Histopathology. To gain further insights in the host inflammatory response against Cn Δgcs1 cells in mice in which macrophages have been deleted, we performed a histology analysis on lungs of Tgε26 mice infected with Δgcs1 strain and receiving empty liposome or liposome containing clodronate.
Experiment [3] concerns Cn WT (C. neoformans var. grubii serotype A H99). In words: Tissue fungal burden (CFU) in Tgε26 mice infected with Cn wild-type. In kind it is in vivo, Cryptococcus neoformans. Here is the method:
(§1) Alveolar macrophage depletion was evaluated by intranasally introducing 60 μl of PBS, empty liposome or liposomes containing clodronate into the mouse and performing bronchoalveolar lavage at 48 hours or 6 days. Bronchoalveolar lavage was done by inserting a stub adapter in the trachea of the mouse and rinsing the alveolar spaces 10 times using 0.5 ml PBS (pH=7.4) for each wash. The collected fluid was spun down and alveolar macrophages were counted. Lavage samples were taken from two mice per time point per group. Experimental groups were divided into five mice each receiving PBS (control group), empty liposome (control group) or liposome encapsulated clodronate administered mice. Two days before infection with yeast, the mice were anesthesized and given 60 μl of PBS, empty liposomes or clodronate-encapsulated liposomes. After 48 hrs, mice were infected with the yeast cells as described above. Mice continued to receive PBS, liposome or clodronate treatment weekly.
(§2) Tissue fungal burden. […] Organs were homogenized in sterile PBS, using the Stomacher 80 (Lab system, Fisher Scientific, Pittsburgh, Pa., USA) for 2 minutes. Serial dilutions were then plated onto YPD plates and colony-forming units were counted and recorded. Statistical analysis was performed using Student's t test, and a p value of less than 0.05 was considered to be significant.
Tissue burden studies. […]

Experiment [4] concerns Cn Δgcs1 mutant. In words: Survival of Tgε26 mice infected intranasally with Cn Δgcs1. In kind it is in vivo, Cryptococcus neoformans. The protocol:
(§3) Animal studies. Four to six-week-old Tgε26 mice (Wang et al., 1994; Wang et al., 1997), available in our Animal Core Facility, Medical University of South Carolina, Charleston, S.C., were used for this study. Mice were anesthetized with an intraperitoneal injection of 60 μl xylaxine/ketamine mixture containing 5 mg xylazine and 95 mg ketamine per kilogram of body weight. Wild-type and mutant strains of Cn were grown in YPD media for 24 hrs at 30° C. The yeast cells were harvested and washed three times by centrifugation at 3000 rpm for 10 minutes and resuspended in sterile PBS (pH=7.4) at a concentration of 2.5×10^7 cells/ml. Mice were infected intranasally with 20 μl containing 5×10^5 wild-type, Δgcs1 or Δgcs1+GCS1 cells. Mice were fed ad libitum and monitored by twice-daily inspections. Mice that appeared moribund, in pain or with clinical signs of meningoencephalitis were sacrificed using CO2 inhalation followed by cervical dislocation. […] Survival data from the mice experiment were analyzed by Kluskal-Wallis test. […]
(§4) Alveolar macrophage depletion was evaluated by intranasally introducing 60 μl of PBS, empty liposome or liposomes containing clodronate into the mouse and performing bronchoalveolar lavage at 48 hours or 6 days. […] The collected fluid was spun down and alveolar macrophages were counted. […]

The test system of experiment [5] is Cn Δgcs1 mutant. The experiment is described as follows: Tissue fungal burden (CFU) in Tgε26 mice infected with Cn Δgcs1. In kind it is in vivo, Cryptococcus neoformans. Here is the method: as §1, §2
Tissue burden studies. To address the effect of macrophage depletion on the dissemination of Δgcs1 cells, we performed tissue burden studies of lung, brain, spleen, and kidney upon infection of Cn WT or Δgcs1 strain.

Experiment [6] deals with alveolar macrophages. In words: Alveolar macrophage depletion, count in bronchoalveolar lavage after intranasal liposomes. In kind it is in vivo, mouse. The settings on record: P<0.05. Here is the method:
Alveolar macrophage depletion. Liposomes containing clodronate (dichloromethylenediphosphonic acid disodium salt) and empty liposomes used as control, were prepared as described previously (Van Rooijen, 1994). Briefly, 8 mg cholesterol (Avanti Polar Lipids) and 86 mg L-alpha phosphatidylcholine (Avanti Polar Lipids) were dissolved in chloroform, which was then slowly evaporated. The thin, filmy layer was resuspended in 10 ml of PBS or 0.6M clodronate. The mixture was exposed to N2 gas and incubated 2 hours at room temperature with gentle shaking. The mixture was then sonicated and incubated another 2 hours to allow liposome swelling. The solution was centrifuged at 10,000 g for 15 minutes and the liposomes containing clodronate were collected and washed twice with sterile PBS. The liposomes were kept at 4° C. under N2 until use for a maximum of 2 weeks.
as §4
Pharmacological depletion of alveolar macrophage. […] After 48 hours or 7 days from the injection, mice were sacrificed, the bronco alveolar lavage (BAL) fluid was collected and viability of alveolar macrophages assessed microscopically.

Experiment [7] deals with Cn WT (C. neoformans var. grubii serotype A H99). The experiment is described as follows: Survival of Tgε26 mice infected intranasally with Cn wild-type. In kind it is in vivo, Cryptococcus neoformans. As to conditions: Cn WT intranasal, weekly intranasal liposome treatment, no significant change vs controls. Here is the method: as §3, §4

Some results are limits rather than exact numbers.

Regarding `CCN(CC)CCCC(C)Nc1ccnc2cc(Cl)ccc12` (stereo not drawn) [chloroquine], in experiment [1], the “extrusion of fungal cells from the intracellular to the extracellular compartment” value was “promote extrusion of fungal cells”.
As for `O=P([O-])([O-])C(Cl)(Cl)P(=O)(O)O.[Na+].[Na+]` [clodronate, dichloromethylenediphosphonic acid disodium salt], the “lung histopathology, Δgcs1 cells” value in experiment [2] is “few Δgcs1 cells in the lung parenchyma”. Further, in experiment [3] (Tgε26 mice, FIG. 15B), the “tissue burden culture in the brain, Cn WT” value is “reduction of tissue burden culture in the brain (FIG. 15B) but this difference was not statistically significant”. Also, in experiment [3] (lung, brain, spleen, kidney, vs PBS or empty liposome groups), the “tissue colonization of Cn WT cells in all organs analyzed” value is recorded as “No statistically significant differences”. In experiment [4] (Tgε26 mice depleted of AMs), the “additional days of survival of infection by the Δgcs1 strain” value was in the range of 18 to 20 days. In addition, in experiment [4] ({}), the “average survival of Δgcs1-infected mice” value came out at 76.6 ± 5.3 days. In addition, the “number of fungal cells in all organs analyzed, Δgcs1” value in experiment [5] (lung, brain, kidney, spleen, vs control treated groups, P<0.05) is listed as “significantly lower number of fungal cells”. For the same molecule, the “reduction of lung Δgcs1 fungal load” value in experiment [5] (macrophage-depleted Tgε26 lungs, P<0.001) is reported as above 3000 fold. Also, in experiment [5] ({}), the “delay in fungal growth in all other organs” value is listed as 14 days. Also, in experiment [6] (48 hours after single intranasal 60 μl dose of liposome suspension, vs PBS- or empty liposome-treated mice), the “decrease in number of alveolar macrophages (AMs)” value stood at 58%. Further, the “reduction of AMs” value in experiment [6] (7 days after single intranasal 60 μl dose of liposome suspension, vs control-treated mice) is on record as 52%. For the same molecule, the “average survival of Cn-infected mice” value in experiment [7] turned out to be 12.8 ± 5.2 days.
